The values that follow come from patent US20030073850A1, “4-Imidazole derivatives of benzyl and restricted benzyl sulfonamides, sulfamides, ureas, carbamates, and amides and their use” (priority 1998, published 2003).

Assay [1] concerns the target T1, α1A (rat submaxillary gland) (Rattus norvegicus, UniProt P43140).
T1 construct: α1A (rat submaxillary gland); from tissue; host or cells: rat submaxillary gland
T1 sequence (P43140 1-466): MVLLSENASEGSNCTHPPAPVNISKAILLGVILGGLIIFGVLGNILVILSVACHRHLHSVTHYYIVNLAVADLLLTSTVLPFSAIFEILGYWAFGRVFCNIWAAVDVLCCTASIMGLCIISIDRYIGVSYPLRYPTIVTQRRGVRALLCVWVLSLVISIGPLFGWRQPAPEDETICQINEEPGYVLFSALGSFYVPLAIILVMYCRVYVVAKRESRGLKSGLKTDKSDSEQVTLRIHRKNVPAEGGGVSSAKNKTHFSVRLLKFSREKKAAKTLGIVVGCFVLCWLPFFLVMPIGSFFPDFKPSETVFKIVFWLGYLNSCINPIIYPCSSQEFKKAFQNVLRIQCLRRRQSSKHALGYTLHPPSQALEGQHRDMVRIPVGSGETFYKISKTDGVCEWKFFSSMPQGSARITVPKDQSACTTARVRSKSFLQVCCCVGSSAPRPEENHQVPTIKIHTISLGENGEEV
Description: Radioligand binding, [3H]-prazosin, α1A. In outline:
(§1)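 [3H]-prazosin radioligand displacement; α1A from rat submaxillary gland tissue, α1b hamster and α1d rat receptors each expressed in mouse fibroblasts.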

For assay [2], the target named is T2, α1d (rat receptor expressed in mouse fibroblasts) (Rattus norvegicus, UniProt P23944).
T2 construct: expressed in transfected cells; host or cells: mouse fibroblasts
T2 sequence (P23944 1-561): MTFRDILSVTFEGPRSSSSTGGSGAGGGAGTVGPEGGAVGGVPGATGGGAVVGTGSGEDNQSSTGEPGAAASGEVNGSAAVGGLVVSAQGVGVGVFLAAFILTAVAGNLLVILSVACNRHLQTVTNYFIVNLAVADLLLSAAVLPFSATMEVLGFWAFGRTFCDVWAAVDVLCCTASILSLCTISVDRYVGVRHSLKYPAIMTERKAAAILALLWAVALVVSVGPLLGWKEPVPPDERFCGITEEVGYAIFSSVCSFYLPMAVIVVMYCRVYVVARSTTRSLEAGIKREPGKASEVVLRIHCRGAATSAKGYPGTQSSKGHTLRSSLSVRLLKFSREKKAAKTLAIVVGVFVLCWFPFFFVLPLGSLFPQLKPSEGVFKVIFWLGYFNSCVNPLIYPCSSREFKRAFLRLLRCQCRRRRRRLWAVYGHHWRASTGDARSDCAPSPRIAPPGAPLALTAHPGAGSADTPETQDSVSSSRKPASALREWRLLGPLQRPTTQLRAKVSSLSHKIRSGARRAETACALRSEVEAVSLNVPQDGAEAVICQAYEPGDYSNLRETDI
Description: Radioligand binding, [3H]-prazosin, α1d. The conditions noted are these: rat receptor expressed in mouse fibroblasts, [3H]-prazosin; read-out: Radioligand Binding Ki α1d (Rat). Summed up: as §1

Assay [3] deals with T3, α1B (rat spleen) (Rattus norvegicus, UniProt P15823).
T3 construct: α1B (rat spleen) and α1D (rat aorta) receptors; from tissue; host or cells: rat spleen
T3 sequence (P15823 1-515): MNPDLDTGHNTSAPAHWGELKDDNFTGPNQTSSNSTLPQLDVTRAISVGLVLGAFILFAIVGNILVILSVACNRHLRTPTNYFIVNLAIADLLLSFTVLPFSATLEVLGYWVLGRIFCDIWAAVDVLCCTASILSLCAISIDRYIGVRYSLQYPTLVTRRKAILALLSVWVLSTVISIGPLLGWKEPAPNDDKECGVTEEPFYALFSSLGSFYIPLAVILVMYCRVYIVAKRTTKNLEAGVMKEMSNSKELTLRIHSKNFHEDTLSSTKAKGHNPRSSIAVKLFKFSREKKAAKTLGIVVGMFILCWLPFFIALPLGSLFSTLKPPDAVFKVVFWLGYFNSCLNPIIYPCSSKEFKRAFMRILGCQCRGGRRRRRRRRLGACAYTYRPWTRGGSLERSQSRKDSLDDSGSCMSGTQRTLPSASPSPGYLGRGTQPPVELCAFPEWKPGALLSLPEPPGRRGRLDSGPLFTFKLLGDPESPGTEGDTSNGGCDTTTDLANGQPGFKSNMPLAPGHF
The experiment in a line: Agonist tissue response, contraction of rat spleen. In kind it is biochemical. The conditions noted are these: read-out: Agonist Tissue Response (pD2) α1B (rat spleen) (converted).

On to `CCS(=O)(=O)Nc1cccc2c1OCCC2c1c[nH]cn1` (single isomer, unassigned; (+)) [Example 95, (+) N-[4-(1H-imidazol-4-yl)-3,4-dihydro-2H-chromen-8-yl]ethanesulfonamide], for which the results for the Ki in assay [1] and in assay [2] were 0.183 µM and 10 µM, respectively. The EC50 in assay [3] is 28.2 µM.
